In experiment [1] the target is T1, Human GPR40 (Homo sapiens (Human), UniProt O14842). The experiment is described as follows: Inositol Phosphate Turnover (IP1) Assay 1, HEK cells stably expressing human GPR40, 3H-inositol SPA. The class given is cell-based. Particulars: HEK cells stably expressing human GPR40, 96-well. Summed up: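 HEK cells stably expressing human GPR40, labelled 18 h with 3H-myo-inositol in inositol-free medium with 0.4% human or mouse albumin. LiCl added 20 min at 37 degrees, then compound 60 min at 37 degrees; formic acid lysates counted by YSi SPA beads for inositol phosphates.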

The target in experiment [2] is T1, Human GPR40. As to the kind of experiment: FLIPR assay, agonist-induced calcium mobilization in GPR40/CHO NFAT BLA cells. It is filed as cell-based. How it is done: Human and mouse GPR40 stable cell-lines were generated in CHO cells stably expressing NFAT BLA (Beta-lactamase). A human GPR40 stable cell-line was generated in HEK cells stably expressing the aequorin expressing reporter. The expression plasmids were transfected using lipofectamine (Life Technologies) following manufacturer's instructions. Stable cell-lines were generated following drug selection.
FLIPR (Fluorimetric Imaging Plate Reader, Molecular Devices) assays were performed to measure agonist-induced calcium mobilization of the stable clones. For the FLIPR assay, one day before assay, GPR40/CHO NFAT BLA cells were seeded into black-wall-clear-bottom 384-well plates (Costar) at 1.4×10e4 cells/20 μL medium/well. The cells were incubated with 20 μl/well of the assay buffer (HBSS, 0.1% BSA, 20 mM HEPES, 2.5 mM probenecid, pH 7.4) containing 8 μM fluo-4, AM, 0.08% pluronic acid at room temperature for 100 minutes. Fluorescence output was measured using FLIPR. Compounds were dissolved in DMSO and diluted to desired concentrations with assay buffer. 13.3 μL/well of compound solution was added.
A general note: A change in cytosolic calcium serves as a functional read-out for many receptors and channels.

In patent publication US10059667B2, “Antidiabetic compounds” (MERCK SHARP & DOHME CORP., priority 2014, dated 2018) one finds EC50 data, which are given here for 32 compounds.

pEC50: −log10 of the molar value.

T1 sequence (O14842 whole entry): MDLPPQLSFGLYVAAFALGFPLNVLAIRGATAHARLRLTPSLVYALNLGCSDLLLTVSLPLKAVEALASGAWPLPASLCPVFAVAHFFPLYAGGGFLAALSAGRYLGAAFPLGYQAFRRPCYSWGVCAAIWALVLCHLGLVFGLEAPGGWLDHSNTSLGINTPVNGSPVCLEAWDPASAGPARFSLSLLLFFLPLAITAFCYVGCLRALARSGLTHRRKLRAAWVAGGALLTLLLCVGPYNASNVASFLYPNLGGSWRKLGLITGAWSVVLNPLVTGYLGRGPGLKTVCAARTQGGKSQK

`O=C(O)C[C@H](c1cccc(OCC2CN(Cc3c(F)cccc3C(F)(F)F)C2)c1)C1CC1` [Example 53]: the midpoint of the response on Human GPR40 [1], the EC50, lay at 4570 nM. The pEC50 on Human GPR40 [2] was 6.41.
In the same order, the values of `C[C@H](C(=O)O)[C@H](c1cccc(O[C@H]2CCCN(Cc3cc(C(F)(F)F)ccc3C(F)(F)F)C2)c1)C1CC1` [Example 29] are 711 nM and 7.29.
The corresponding values for `CC(c1cc(F)ccc1Cl)N1CC(COc2cccc([C@@H](CC(=O)O)C3CC3)c2)C1` (stereo partly shown) [Example 51] are 449 nM and 7.24.
For `O=C(O)C[C@H](c1cccc(OC2CC3(C2)CN(Cc2cc(C(F)(F)F)ccc2C(F)(F)F)C3)c1)C1CC1` [Example 15, (S)-3-(3-((2-(2,5-Bis(trifluoromethyl)benzyl)-2-azaspiro[3.3]heptan-6-yl)oxy)phenyl)-3-cyclopropylpropanoic acid], the EC50 at Human GPR40 [1] was 2080 nM. In addition, the pEC50 on Human GPR40 [2] was 7.10.
The corresponding values for `O=C(O)C[C@H](c1cccc(OCCC2CCN(Cc3cc(C(F)(F)F)ccc3C(F)(F)F)C2)c1)C1CC1` (stereo partly drawn) [Example 2, (3S)-3-(3-(2-(1-(2,5-Bis(trifluoromethyl)benzyl)pyrrolidin-3-yl)ethoxy)phenyl)-3-cyclopropylpropanoic acid] are 1830 nM and 6.76.
The corresponding values for `COc1cccc(C2CC2COc2cccc([C@@H](CC(=O)O)C3CC3)c2)c1` (single isomer, unassigned) [Example 62, (3 S)-3-cyclopropyl-3-(3-((2-(3-methoxyphenyl)cyclopropyl)methoxy)phenyl)propanoic acid] are 166 nM and 8.24.
The corresponding values for `C[C@H](C(=O)O)[C@H](c1cccc(OC[C@@H]2CCN(Cc3cc(C(F)(F)F)ccc3C(F)(F)F)C2)c1)C1CC1` [Example 26] are 55 nM and 8.82.
Consider `CC(c1ccccc1C(F)(F)F)N1CC(COc2cccc([C@@H](CC(=O)O)C3CC3)c2)C1` (stereo partly shown) [Example 55], for which the EC50 on Human GPR40 [1] turned out to be 904 nM. In addition, the pEC50 on Human GPR40 [2] is 8.14.
In the same order, the values of `CC(c1cc(C(F)(F)F)ccc1C1CC1)N1CC(COc2cccc([C@@H](CC(=O)O)C3CC3)c2)C1` (stereo partly shown) [Example 58] are 366 nM and 6.95.
`COc1ccc(F)cc1CN1CC(COc2cccc([C@@H](CC(=O)O)C3CC3)c2)C1` [Example 19, (S)-3-Cyclopropyl-3-(3-((1-(5-fluoro-2-methoxybenzyl)azetidin-3-yl)methoxy)-phenyl)propanoic acid] returned an EC50 at Human GPR40 [1] of 4780 nM. Further, the pEC50 on Human GPR40 [2] was 6.30.
In the same order, the values of `C[C@H](C(=O)O)[C@H](c1cccc(O[C@@H]2CCCN(Cc3cc(C(F)(F)F)ccc3C(F)(F)F)C2)c1)C1CC1` [Example 7, (2S,3R)-3-(3-(((R)-1-(2,5-bis(trifluoromethyl)benzyl)piperidin-3-yl)oxy)phenyl)-3-cyclopropyl-2-methylpropanoic acid] are 89 nM and 8.70.
With `CC(c1cc(C(F)(F)F)ccc1C(F)(F)F)N1CC(COc2cccc([C@@H](CC(=O)O)C3CC3)c2)C1` (stereo partly shown) [Example 54], the 50% effective concentration (EC50) at Human GPR40 [1] was determined as 27 nM. Moreover, on Human GPR40 [2], the pEC50 is 9.22.
The corresponding values for `C[C@H](C(=O)O)[C@H](c1cccc(O[C@H]2CCCN(Cc3cc(C(F)(F)F)ccc3C(F)(F)F)C2)c1)C1CC1` [Example 1, (2S,3R)-3-(3-(((S)-1-(2,5-bis(trifluoromethyl)benzyl)piperidin-3-yl)oxy)phenyl)-3-cyclopropyl-2-methylpropanoic acid] are 89 nM and 8.72.
In the same order, the values of `C[C@H](C(=O)O)[C@H](c1cccc(OCC2CN(Cc3cc(C(F)(F)F)ccc3C(F)(F)F)C2)c1)C1CC1` [Example 25, (2S,3R)-3-(3-((1-(2,5-Bis(trifluoromethyl)benzyl)azetidin-3-yl)methoxy)phenyl)-3-cyclopropyl-2-methylpropanoic acid] are 79 nM and 8.85.
In the same order, the values of `C[C@H](C(=O)O)[C@H](c1cccc(OCC2CC(NCc3cc(C(F)(F)F)ccc3C(F)(F)F)C2)c1)C1CC1` (stereo partly drawn) [Example 14, (2S,3R)-3-(3-((3-((2,5-Bis(trifluoromethyl)benzyl)amino)cyclobutyl)methoxy)phenyl)-3-cyclopropyl-2-methylpropanoic acid] are 956 nM and 7.59.
Turning to `CC1(COc2cccc([C@@H](CC(=O)O)C3CC3)c2)CCN(Cc2cc(C(F)(F)F)ccc2C(F)(F)F)C1` (stereo partly shown) [Example 43], the EC50 on Human GPR40 [1] was 952 nM. Besides, at Human GPR40 [2], the negative-log EC50 (pEC50) was 6.64.
`C[C@H](C(=O)O)[C@H](c1cccc(OCC2CN(c3cc(C(F)(F)F)ccc3C(F)(F)F)C2)c1)C1CC1` [Example 4, (2S,3R)-3-(3-((1-(2,5-Bis(trifluoromethyl)phenyl)azetidin-3-yl)methoxy)phenyl)-3-cyclopropyl-2-methylpropanoic acid] showed an EC50 at Human GPR40 [1] of 485 nM. Moreover, on Human GPR40 [2], the pEC50 was 7.11.
The corresponding values for `COc1ccc(F)cc1CN1CCC(Oc2cccc([C@@H](CC(=O)O)C3CC3)c2)C1` (stereo partly drawn) [Example 12, (3S)-3-Cyclopropyl-3-(3-((1-(5-fluoro-2-methoxybenzyl)pyrrolidin-3-yl)oxy)phenyl)propanoic acid] are 4660 nM and 6.95.
The corresponding values for `O=C(O)C[C@H](c1cccc(OC2CC3(CCN(Cc4cc(C(F)(F)F)ccc4C(F)(F)F)C3)C2)c1)C1CC1` (single isomer, unassigned) [Example 5B] are 2140 nM and 6.95.
The corresponding values for `CC(c1cc(C(F)(F)F)ccc1Cl)N1CC(COc2cccc([C@@H](CC(=O)O)C3CC3)c2)C1` (stereo partly shown) [Example 60] are 527 nM and 6.74.
At Human GPR40 [1], `COc1cccc(C2CC2COc2cccc([C@@H](CC(=O)O)C3CC3)c2)c1` (stereo partly shown) [Example 61, (3 S)-3-cyclopropyl-3-(3-((2-(3-methoxyphenyl)cyclopropyl)methoxy)phenyl)propanoic acid] displayed an EC50 of 651 nM. For the same compound, the pEC50 on Human GPR40 [2] was 7.62.
In the same order, the values of `CC(c1cc(C(F)(F)F)ccc1C(F)(F)F)N1CC(COc2cccc([C@H](C3CC3)[C@H](C)C(=O)O)c2)C1` (stereo partly shown) [Example 27] are 7.6 nM and 9.52.
The corresponding values for `O=C(O)C[C@H](c1cccc(OC2CCN(Cc3cc(C(F)(F)F)ccc3C(F)(F)F)CC2)c1)C1CC1` [Example 48] are 1020 nM and 6.85.
The corresponding values for `O=C(O)C[C@H](c1cccc(OCC2CN(Cc3ccccc3OC(F)(F)F)C2)c1)C1CC1` [Example 50] are 5030 nM and 7.26.
As to `COc1cccc(C2CC2COc2cccc([C@@H](CC(=O)O)C3CC3)c2)c1` (single isomer, unassigned) [Example 63, (3 S)-3-cyclopropyl-3-(3-((2-(3-methoxyphenyl)cyclopropyl)methoxy)phenyl)propanoic acid], the EC50 on Human GPR40 [1] is 348 nM. In addition, the pEC50 at Human GPR40 [2] was 7.82.
In the same order, the values of `O=C(O)C[C@H](c1cccc(OCC2CCN(c3cc(C(F)(F)F)ccc3C(F)(F)F)C2)c1)C1CC1` (stereo partly drawn) [Example 13, (3S)-3-(3-((1-(2,5-Bis(trifluoromethyl)phenyl)pyrrolidin-3-yl)methoxy)phenyl)-3-cyclopropylpropanoic acid] are 1850 nM and 6.89.
The compound `O=C(O)C[C@H](c1cccc(OCCC2CN(Cc3cc(C(F)(F)F)ccc3C(F)(F)F)C2)c1)C1CC1` [Example 18, (S)-3-(3-(2-(1-(2,5-Bis(trifluoromethyl)benzyl)azetidin-3-yl)ethoxy)phenyl)-3-cyclopropylpropanoic acid] came in with an EC50 on Human GPR40 [1] of 3710 nM. Moreover, on Human GPR40 [2], the pEC50 is 6.44.
On to `CC1(C)CN(Cc2cc(C(F)(F)F)ccc2C(F)(F)F)CC1COc1cccc([C@@H](CC(=O)O)C2CC2)c1` (stereo partly drawn) [Example 22, (3S)-3-(3-((1-(2,5-Bis(trifluoromethyl)benzyl)-4,4-dimethylpyrrolidin-3-yl)methoxy)phenyl)-3-cyclopropylpropanoic acid], for which, at Human GPR40 [1], the EC50 worked out at 2610 nM. Moreover, at Human GPR40 [2], the negative-log EC50 (pEC50) was 7.07.
The corresponding values for `COc1ccc(F)cc1CN1CCC(COc2cccc([C@@H](CC(=O)O)C3CC3)c2)C1` (stereo partly drawn) [Example 20, (3S)-3-Cyclopropyl-3-(3-((1-(5-fluoro-2-methoxybenzyl)pyrrolidin-3-yl)methoxy)phenyl)propanoic acid] are 10000 nM and 6.58.
In the case of `O=C(O)C[C@H](c1cccc(OC2CCN(Cc3cc(C(F)(F)F)ccc3C(F)(F)F)C2)c1)C1CC1` (stereo partly drawn) [Example 23, (3S)-3-(3-((1-(2,5-Bis(trifluoromethyl)benzyl)pyrrolidin-3-yl)oxy)phenyl)-3-cyclopropylpropanoic acid], a half-maximal effect on Human GPR40 [1] (EC50) was put at 1040 nM. For the same compound, the pEC50 at Human GPR40 [2] was 7.14.
The compound `C[C@H](C(=O)O)[C@H](c1cccc(OCC2CN(c3cc(C(F)(F)F)ccn3)C2)c1)C1CC1` [Example 16, (2S,3R)-3-Cyclopropyl-2-methyl-3-(3-((1-(4-(trifluoromethyl)pyridin-2-yl)azetidin-3-yl)methoxy)phenyl)propanoic acid] returned an EC50 on Human GPR40 [1] of 631 nM. Moreover, at Human GPR40 [2], the pEC50 is 7.10.
In the same order, the values of `O=C(O)C[C@H](c1cccc(OC2CCN(Cc3cc(C(F)(F)F)ccc3Cl)C2)c1)C1CC1` (stereo partly shown) [Example 42] are 1120 nM and 7.03.

The term EC50 denotes the concentration that produces a half-maximal response. Read a low EC50 as an effect from little substance. The pEC50 is the EC50 on a negative log10 scale, so that one unit is a factor of ten.
